Experiments:
[1] = molecular target: T1, human ANO6 (Homo sapiens, UniProt Q4KMQ2); test: YFP quenching assay (ANO6 ion channel activity); format: cell-based; conditions: 10 μM ionomycin; for inhibition at 1 µM: test compound 1 μM, read-out: Inhibition Level 1 μM; for inhibition at 30 µM: test compound 30 μM, read-out: Inhibition Level 30 μM
T1 construct: expressed in transfected cells
T1 sequence (Q4KMQ2 1-931 isoform Q4KMQ2-2): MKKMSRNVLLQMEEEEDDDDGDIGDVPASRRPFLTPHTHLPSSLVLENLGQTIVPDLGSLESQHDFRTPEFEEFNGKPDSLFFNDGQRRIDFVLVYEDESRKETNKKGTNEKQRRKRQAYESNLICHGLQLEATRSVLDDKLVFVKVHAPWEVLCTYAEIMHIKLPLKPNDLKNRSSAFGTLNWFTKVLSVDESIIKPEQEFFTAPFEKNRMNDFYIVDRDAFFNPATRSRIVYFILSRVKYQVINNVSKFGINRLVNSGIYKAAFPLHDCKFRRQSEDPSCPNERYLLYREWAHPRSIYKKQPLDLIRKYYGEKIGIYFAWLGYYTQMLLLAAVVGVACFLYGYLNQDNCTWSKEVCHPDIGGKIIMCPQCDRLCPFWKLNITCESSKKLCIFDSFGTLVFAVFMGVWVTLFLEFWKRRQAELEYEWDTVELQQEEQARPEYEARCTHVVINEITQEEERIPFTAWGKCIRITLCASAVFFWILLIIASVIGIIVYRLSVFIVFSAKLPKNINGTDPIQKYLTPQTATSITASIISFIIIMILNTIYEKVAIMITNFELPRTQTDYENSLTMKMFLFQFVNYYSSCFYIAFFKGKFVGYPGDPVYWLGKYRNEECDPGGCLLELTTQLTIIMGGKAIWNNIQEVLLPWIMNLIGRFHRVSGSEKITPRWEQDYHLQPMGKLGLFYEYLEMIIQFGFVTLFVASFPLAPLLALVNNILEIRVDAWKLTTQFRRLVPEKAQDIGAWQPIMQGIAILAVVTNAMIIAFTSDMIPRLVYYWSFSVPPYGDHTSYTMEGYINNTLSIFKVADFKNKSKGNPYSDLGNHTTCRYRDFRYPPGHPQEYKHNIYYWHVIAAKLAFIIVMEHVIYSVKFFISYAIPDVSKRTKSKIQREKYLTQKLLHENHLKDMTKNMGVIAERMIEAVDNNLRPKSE
Text: Example 3: YFP Quenching Assay
1. Materials and Instruments
Ionomycin (Alomonelab cat. #I-700), FLUOstar Omega microplate reader (BMG Labtech, Ortenberg, Germany), and MARS Data Analysis Software (BMG Labtech)
Fisher rat thyroid (FRT) cells stably expressing human ANO6 (GenBank accession no. NP_001191732.1, provided by J. H. Nam, Dongguk University College of Medicine, Korea) and halide sensor mutant YFP-H148Q/I152L/F46L) were constructed and grown in Dulbecco's modified Eagle's medium Nutrient Mixture F-12 (DMEM/F-12) supplemented 10% FBS, 100 units/mL penicillin, 500 μg/mL hygromycin B and 100 μg/mL neomycin.
Fisher rat thyroid (FRT) cells stably expressing human ANO6 and halide sensor mutant YFP (H148Q/I152L/F46L) were seeded in black walled 96 well plates and incubated in a 37° C., 5% CO2 incubator to reach about 100% cell confluency. Then, each well of the 96 well plates were washed for several times with phosphate buffered saline (PBS), and 50 μL of PBS was added to each well. Test compounds (100× in DMSO) were added to each well to be 1% v/v DMSO. After incubation for 10 minutes in 40° C., the 96 well plates were transferred to a plate reader, and YFP fluorescence changed by SCN-introduced into cells through activated ANO6 were measured by the following steps.
(1) YFP fluorescence signals were recorded in every 0.4 seconds.
(2) Basal YFP fluorescence signals were recorded for 1 second.
(3) 140 mM SCN-(50 μL) containing 10 μM ionomycin was injected to each well, and YFP fluorescence signals were recorded.
The inhibitory activity (%) of each of the test compounds was obtained by the following steps.
(1) Background signals were subtracted from recording values, and the resulting values were converted to relative percentages. The values at 0 second were set to be 100%.
(2) Differences between the values at 3.6 seconds and those of at 7.6 seconds were calculated.
(3) In each row of 96 well plate, the inhibitory activity of each of the test compounds was calculated as percentages. The inhibitory activity of a negative control group to which neither compounds nor ionomycin were treated was set to be 100%, and the inhibitory activity of a positive control group to which ionomycin was treated and compounds were not treated was set to be 0%.
(4) The assay was performed in duplicate or triplicate, and the results were averaged.

[2] = molecular target: T1, human ANO6; test: LACT C2 assay (phosphatidylserine scramblase function assay); format: cell-based; conditions: FRT cells expressing human ANO6, 10 μM ionomycin; for inhibition at 0.1 µM: test compound 100 nM, read-out: Inhibition Level 100 nM; for inhibition at 1 µM: test compound 1 μM, read-out: Inhibition Level 1 μM
Procedure, shortened: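 FRT cells stably expressing human ANO6 were pretreated with compound (1% DMSO) for 10 min, then stimulated with 10 μM ionomycin for 10 min. Surface phosphatidylserine was stained with 500 nM Lact-C2-GFP and quantified by imaging. Inhibition was scaled between unstimulated (100%) and ionomycin-only (0%) controls, averaged over triplicates.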

SMILES | inhibition at 1 µM [1] [%] | inhibition at 30 µM [1] [%] | inhibition at 0.1 µM [2] [%] | inhibition at 1 µM [2] [%]
O=C(NCCN1CCCCC1)c1cccc(Nc2ncc(-c3ccccc3)cn2)c1 [Compound 93, 3-[(5-phenylpyrimidin-2-yl)amino]-N-[2-(piperidin-1-yl)ethyl]benzamide] | < 30 |  |  | 
O=C(NCCc1ccccc1)c1cnc(Nc2ccc(-c3ccccc3)nn2)s1 [Compound 113, N-(2-phenylethyl)-2-[(6-phenylpyridazin-3-yl)amino]-1,3-thiazole-5-carboxamide] | < 30 |  |  | 
Cc1ccc(CNC(=O)c2cccc(Nc3ccc(CCc4ccccc4)nn3)c2)o1 [Compound 76, N-[(5-methylfuran-2-yl)methyl]-3-{[6-(2-phenylethyl)pyridazin-3-yl]amino}benzamide] | < 30 |  |  | 
COc1ccc(CNC(=O)c2cccc(Nc3ccc(-c4ccc(F)cc4)nn3)c2)c(OC)c1 [Compound A9] |  | 30 to 60 |  | 
O=C(NC1COC1)c1cccc(Nc2ccc(-c3ccccc3)nn2)c1 [Compound 26, N-(oxetan-3-yl)-3-[(6-phenylpyridazin-3-yl)amino]benzamide] | 30 to 60 | ≥ 60 |  | 
COc1ccc(-c2ccc(Nc3cccc(C(=O)NCc4ccc(C)o4)c3)nn2)cc1 [Compound 13, 3-{[6-(4-methoxyphenyl)pyridazin-3-yl]amino}-N-[(5-methylfuran-2-yl)methyl]benzamide] | < 30 | ≥ 60 |  | 
O=C(NCCN1CCCC1)c1cccc(Nc2ncc(-c3ccccc3)cn2)c1 [Compound 94, 3-[(5-phenylpyrimidin-2-yl)amino]-N-[2-(pyrrolidin-1-yl)ethyl]benzamide] | < 30 |  |  | 
CN(CCNC(=O)c1cccc(Nc2ccc(-c3ccccc3)nn2)c1)Cc1ccccc1 [Compound 124] | 30 to 60 |  |  | 
Cc1ccc(CNC(=O)c2cccc(Nc3ccc(-c4cccc(F)c4)nn3)c2)cc1 [Compound A25] | 30 to 60 | ≥ 60 |  | 
O=C(NC1CCOCC1)c1cccc(Nc2ccc(-c3ccccc3)nn2)c1 [Compound 28, N-(oxan-4-yl)-3-[(6-phenylpyridazin-3-yl)amino]benzamide] | < 30 | ≥ 60 |  | 
CC(C)(NC(=O)c1cccc(Nc2ccc(-c3ccccc3)nn2)c1)c1ccc(F)cc1 [Compound 213, N-(2-(4-fluorophenyl)propan-2-yl)-3-((6-phenylpyridazin-3-yl)amino)benzamide] |  |  | < 30 | 30 to 60
O=C(NCc1ccc(Cl)cc1Cl)c1cccc(Nc2ncc(-c3cccc(F)c3)cn2)c1 [Compound 207, N-(2,4-dichlorobenzyl)-3-((5-(3-fluorophenyl)pyrimidin-2-yl)amino)benzamide] |  |  | < 30 | 30 to 60
O=C(NCc1ccccc1Cl)c1cccc(Nc2ncc(-c3cccc(F)c3)cn2)c1 [Compound A98] |  |  | < 30 | 30 to 60
O=C(NC1(c2ccccc2)CC1)c1cccc(Nc2ccc(-c3cccc(F)c3)cn2)c1 [Compound 134, 3-((5-(3-fluorophenyl)pyridin-2-yl)amino)-N-(1-phenylcyclopropyl)benzamide] |  |  | < 30 | 30 to 60

The remaining lines, values ahead:

inhibition at 1 µM [1] [%] | inhibition at 30 µM [1] [%] | inhibition at 0.1 µM [2] [%] | inhibition at 1 µM [2] [%] | SMILES
< 30 | 30 to 60 |  |  | O=C(NCc1ccncc1)c1cccc(Nc2ccc(-c3ccccc3)nn2)c1 [Compound 18, 3-[(6-phenylpyridazin-3-yl)amino]-N-[(pyridin-4-yl)methyl]benzamide]
30 to 60 | ≥ 60 |  |  | Cc1ccc(CNC(=O)c2cccc(Nc3cnc(-c4ccccc4)nc3)c2)o1 [Compound 11, N-[(5-methylfuran-2-yl)methyl]-3-[(2-phenylpyrimidin-5-yl)amino]benzamide]
30 to 60 |  |  |  | COc1ccc(CCNC(=O)c2cccc(Nc3ncc(-c4ccccc4)cn3)c2)cc1 [Compound 83, N-[2-(4-methoxyphenyl)ethyl]-3-[(5-phenylpyrimidin-2-yl)amino]benzamide]
30 to 60 | ≥ 60 |  |  | O=C(NCc1cccnc1)c1cccc(Nc2ccc(-c3ccccc3)nn2)c1 [Compound 20, 3-[(6-phenylpyridazin-3-yl)amino]-N-[(pyridin-3-yl)methyl]benzamide]
< 30 |  |  |  | Cc1ccc(CNC(=O)c2cccc(Nc3ccc(CCc4ccc(F)cc4)nn3)c2)o1 [Compound 77, 3-({6-[2-(4-fluorophenyl)ethyl]pyridazin-3-yl}amino)-N-[(5-methylfuran-2-yl)methyl]benzamide]
30 to 60 |  |  |  | O=C(NCC1CCCO1)c1cccc(Nc2ncc(-c3cccc(F)c3)cn2)c1 (stereo not shown) [Compound A83]
30 to 60 | ≥ 60 |  |  | COc1ccc(CNC(=O)c2cccc(Nc3ccc(-c4ccccc4)nn3)c2)c(OC)c1 [Compound A61]
 | < 30 |  |  | Cc1ccc(-c2ccc(Nc3cccc(C(=O)NCc4ccc(Br)cc4)c3)nn2)cc1 [Compound A30]
30 to 60 | ≥ 60 |  |  | O=C(NCCc1ccncc1)c1cccc(Nc2ccc(-c3ccccc3)nn2)c1 [Compound 27, 3-[(6-phenylpyridazin-3-yl)amino]-N-[2-(pyridin-4-yl)ethyl]benzamide]
 | 30 to 60 |  |  | NC(=O)c1ccc(Nc2ccc(-c3ccccc3)nn2)cc1 [Compound A86]
 |  | < 30 | < 30 | CN1CCN(c2ccc(CNC(=O)c3cccc(Nc4ccc(-c5ccccc5)nn4)c3)cc2)CC1 [Compound 197, N-(4-(4-methylpiperazin-1-yl)benzyl)-3-((6-phenylpyridazin-3-yl)amino)benzamide]
 |  | < 30 | 30 to 60 | CN1CCN(c2cc(CNC(=O)c3cccc(Nc4ccc(-c5ccccc5)nn4)c3)ccc2F)CC1 [Compound 227, N-(4-fluoro-3-(4-methylpiperazin-1-yl)benzyl)-3-((6-phenylpyridazin-3-yl)amino)benzamide]
 |  | < 30 | ≥ 60 | O=C(NCc1ccc(F)cc1Br)c1cccc(Nc2ccc(-c3ccccc3)nn2)c1 [Compound 200, N-(2-bromo-4-fluorobenzyl)-3-((6-phenylpyridazin-3-yl)amino)benzamide]
 |  | < 30 | ≥ 60 | O=C(NCCc1ccc(F)cc1)c1cccc(Nc2ccc(-c3ccccc3)nn2)c1 [Compound 198, N-(4-fluorophenethyl)-3-((6-phenylpyridazin-3-yl)amino)benzamide]
 |  | < 30 |  | O=C(Nc1ccc2c(c1)CCN2)c1cccc(Nc2ncc(-c3cccc(F)c3)cn2)c1 [Compound 181, 3-((5-(3-fluorophenyl)pyrimidin-2-yl)amino)-N-(indolin-5-yl)benzamide]

From US20230080054A1 (ILDONG PHARMACEUTICAL CO., LTD., priority 2021, published 2023)
